According to US11746111B2, “Siderophore conjugated pyrazolidinones, and analogues thereof” (YALE UNIVERSITY, priority 2018, dated 2023):
Converted amounts (≈) assume the structure as drawn. Read-outs that look alike come from different tables or passages of the source.

Key:
[1] = tested on: E. coli clinical isolates; assay: Microdilution broth MIC, E. coli clinical isolates (Table 1); type: cell-based; details: Escherichia coli
Protocol: (§1) Microdilution Broth Minimum Inhibitory Concentrations (MICs)
(§2) MICs were performed in triplicate in cation adjusted Mueller-Hinton (MH) broth 30 according to CLSI guidelines. Firstly, overnight cultures of E. coli and K. pneumoniae clinical isolates were inoculated into 5 ml MH broth to OD600=0.1 and grown to OD600=0.224 (approximately 1-2×10^8 CFU/ml). These cultures were diluted (3 μl+4997 μl MH) and 100 μl inoculated into each well of a 96-well plate containing 100 μl of serial dilutions of compound 26 (YU253434), ampicillin, ceftazidime, or imipenem. The plates were placed in a 37° C. incubator for 18-20 hours and wells checked for growth.

[2] = tested on: K. pneumoniae clinical isolates; assay: Microdilution broth MIC, K. pneumoniae clinical isolates (Table 1); type: cell-based; details: Klebsiella pneumoniae
Protocol: as §1, §2

[3] = E. coli 35218, TEM-1, read-out: MIC
[4] = E. coli LC12, CTX-M-1 grp(15), read-out: MIC
[5] = E. coli LC77, TEM, KPC, read-out: MIC
[6] = E. coli LC81, SHV (238S + 240K), read-out: MIC
[7] = E. coli LC91, CTX-M-1 grp(15), CMY (group II), read-out: MIC
[8] = E. coli LC98, CMY (group II), read-out: MIC
[9] = E. coli LC111, TEM (164S), read-out: MIC
[10] = E. coli LC136, SHV (WT + 238S), read-out: MIC
[11] = K. pneumoniae LC56, CTX-M-1 grp(15), read-out: MIC
[12] = K. pneumoniae LC102, SHV-1 (WT + 238S), read-out: MIC
[13] = K. pneumoniae Rush23, CTX-M-9 group, read-out: MIC
[14] = K. pneumoniae VA-368, KPC-2, TEM-1, SHV-5, SHV-68, read-out: MIC
[15] = K. pneumoniae VA-398, KPC-3, TEM-1, SHV-11, SHV-12, SHV-27, read-out: MIC

Structure (SMILES): CC1(C)S[C@@H]2[C@H](NC(=O)[C@H](N)c3ccccc3)C(=O)N2[C@H]1C(=O)O [Ampicillin]
- MIC ([1]; BAA202, E. coli BAA-202, SHV-1): > 2050 µg/mL
- MIC [1, 3]: 256 µg/mL (≈ 733 µM)
- MIC ([1]; E. coli LC4, TEM, SHV-12): > 2050 µg/mL
- MIC [1, 4]: 2050 µg/mL (≈ 5860 µM)
- MIC ([1]; E. coli LC15, CTX-M-9 group, CTX-M-1 grp(15)): 1020 µg/mL (≈ 2930 µM)
- MIC ([1]; E. coli LC33, CTX-M-9 group): 512 µg/mL (≈ 1470 µM)
- MIC ([1]; E. coli LC38, CTX-M-1 grp(15), PB AmpC (ACT/MIR)): 512 µg/mL (≈ 1470 µM)
- MIC ([1]; E. coli LC41, TEM (238S), PB AmpC (ACT/MIR), CTX-M-1 grp(15)): 512 µg/mL (≈ 1470 µM)
- MIC [1, 5]: 2050 µg/mL (≈ 5860 µM)
- MIC [1, 6]: 2050 µg/mL
- MIC [1, 7]: 2050 µg/mL (≈ 5860 µM)
- MIC [1, 8]: 2050 µg/mL (≈ 5860 µM)
- MIC ([1]; E. coli LC109, CTX-M-9 group, CMY (group II)): 1020 µg/mL (≈ 2930 µM)
- MIC [1, 9]: 1020 µg/mL (≈ 2930 µM)
- MIC [1, 10]: 512 µg/mL
- MIC ([1]; E. coli Rush24, CMY (group II)): > 2050 µg/mL
- MIC ([2]; K. pneumoniae 7000063, β-lactamase SHV-18): 1020 µg/mL (≈ 2930 µM)
- MIC ([2]; K. pneumoniae KB390 Quale, TEM-30, TEM-1, KPC-2, SHV-12, read-out: MIC): > 2050 µg/mL
- MIC ([2]; K. pneumoniae LC40, CTX-M-1 grp(15), TEM (164S)): 512 µg/mL (≈ 1470 µM)
- MIC [2, 11]: > 2050 µg/mL
- MIC [2, 12]: > 2050 µg/mL
- MIC ([2]; K. pneumoniae LC121, SHV-1 (WT + 238S + 240K)): 1020 µg/mL
- MIC [2, 13]: > 2050 µg/mL
- MIC ([2]; K. pneumoniae VA-184, KPC-2, SHV-11, SHV-12, read-out: MIC): > 2050 µg/mL
- MIC ([2]; K. pneumoniae VA-267, KPC-3, TEM-1, SHV-11, SHV-12, read-out: MIC): > 2050 µg/mL
- MIC ([2]; K. pneumoniae VA-357, KPC-2, SHV-11, read-out: MIC): > 2050 µg/mL
- MIC [2, 14]: > 2050 µg/mL
- MIC ([2]; K. pneumoniae VA-384, KPC-2, TEM-1, SHV-11, SHV-12, SHV-14, read-out: MIC): > 2050 µg/mL
- MIC ([2]; K. pneumoniae VA-391, KPC-3, TEM-1, SHV-11, SHV-12, SHV-77, read-out: MIC): > 2050 µg/mL
- MIC [2, 15]: > 2050 µg/mL
- MIC ([2]; K. pneumoniae VA-400, KPC-2, TEM-1, SHV-11, SHV-12, read-out: MIC): > 2050 µg/mL
- MIC ([2]; K. pneumoniae VA-406, KPC-2, TEM-1, SHV-11, SHV-12, read-out: MIC): > 2050 µg/mL
- MIC ([2]; K. pneumoniae VA-410, KPC-3, TEM-1, SHV-11, read-out: MIC): > 2050 µg/mL

Structure (SMILES): CC(C)(O/N=C(\C(=O)N[C@@H]1C(=O)N2C(C(=O)[O-])=C(C[n+]3ccccc3)CS[C@H]12)c1csc(N)n1)C(=O)O [Ceftazidime]
- MIC ([1]; BAA202, E. coli BAA-202, SHV-1, read-out: MIC): 16 µg/mL (≈ 29.3 µM)
- MIC [1, 3]: < 1 µg/mL
- MIC ([1]; E. coli LC4, TEM, SHV-12): 256 µg/mL (≈ 468 µM)
- MIC [1, 4]: > 1020 µg/mL
- MIC ([1]; E. coli LC15, CTX-M-9 group, CTX-M-1 grp(15), read-out: MIC): < 1 µg/mL
- MIC ([1]; E. coli LC33, CTX-M-9 group, read-out: MIC): 4 µg/mL (≈ 7.32 µM)
- MIC ([1]; E. coli LC38, CTX-M-1 grp(15), PB AmpC (ACT/MIR), read-out: MIC): < 1 µg/mL
- MIC ([1]; E. coli LC41, TEM (238S), PB AmpC (ACT/MIR), CTX-M-1 grp(15), read-out: MIC): < 1 µg/mL
- MIC [1, 5]: 16 µg/mL (≈ 29.3 µM)
- MIC [1, 6]: 128 µg/mL
- MIC [1, 7]: 16 µg/mL (≈ 29.3 µM)
- MIC [1, 8]: 256 µg/mL (≈ 468 µM)
- MIC ([1]; E. coli LC109, CTX-M-9 group, CMY (group II), read-out: MIC): 32 µg/mL (≈ 58.5 µM)
- MIC [1, 9]: 2 µg/mL (≈ 3.66 µM)
- MIC [1, 10]: < 1 µg/mL
- MIC ([1]; E. coli Rush24, CMY (group II), read-out: MIC): 256 µg/mL (≈ 468 µM)
- MIC ([2]; K. pneumoniae 7000063, β-lactamase SHV-18, read-out: MIC): 16 µg/mL (≈ 29.3 µM)
- MIC ([2]; K. pneumoniae KB390 Quale, TEM-30, TEM-1, KPC-2, SHV-12): 512 µg/mL (≈ 937 µM)
- MIC ([2]; K. pneumoniae LC40, CTX-M-1 grp(15), TEM (164S), read-out: MIC): < 1 µg/mL
- MIC [2, 11]: 16 µg/mL (≈ 29.3 µM)
- MIC [2, 12]: 4 µg/mL
- MIC ([2]; K. pneumoniae LC121, SHV-1 (WT + 238S + 240K), read-out: MIC): 16 µg/mL
- MIC [2, 13]: 2 µg/mL (≈ 3.66 µM)
- MIC ([2]; K. pneumoniae VA-184, KPC-2, SHV-11, SHV-12): 256 µg/mL (≈ 468 µM)
- MIC ([2]; K. pneumoniae VA-267, KPC-3, TEM-1, SHV-11, SHV-12): 512 µg/mL (≈ 937 µM)
- MIC ([2]; K. pneumoniae VA-357, KPC-2, SHV-11): 128 µg/mL (≈ 234 µM)
- MIC [2, 14]: 16 µg/mL (≈ 29.3 µM)
- MIC ([2]; K. pneumoniae VA-384, KPC-2, TEM-1, SHV-11, SHV-12, SHV-14): 256 µg/mL (≈ 468 µM)
- MIC ([2]; K. pneumoniae VA-391, KPC-3, TEM-1, SHV-11, SHV-12, SHV-77): 256 µg/mL (≈ 468 µM)
- MIC [2, 15]: 32 µg/mL (≈ 58.5 µM)
- MIC ([2]; K. pneumoniae VA-400, KPC-2, TEM-1, SHV-11, SHV-12): 256 µg/mL (≈ 468 µM)
- MIC ([2]; K. pneumoniae VA-406, KPC-2, TEM-1, SHV-11, SHV-12): 256 µg/mL (≈ 468 µM)
- MIC ([2]; K. pneumoniae VA-410, KPC-3, TEM-1, SHV-11): 128 µg/mL (≈ 234 µM)
